Source: patent US11413278B2, “Compounds and methods for promoting stress resistance” (priority 2015, dated 2022)
Where two headings read alike, the source gives them in different places.

Experiments:
[1] = tested on: mTOR; assay: mTOR inhibition (RPS6 phosphorylation status), In-Cell Western; format: cell-based, human
Protocol: In-Cell Western assays were performed, following a standard immuno-staining protocol. Briefly, WI-38 cells were treated with small molecules for 24 hrs, and then processed and incubated with primary antibody cocktail (Cell Signaling, mouse anti-RPS, 1:25; rabbit-anti-pRPS6-(Ser-235/236), 1:100) overnight at 4° C. Next day, samples were processed and incubated with fluorophore-conjugated secondary antibodies (Cell Signaling, DyLight 680-goat anti-mouse, 1:500; DyLight 800-goat anti-rabbit, 1:1,000). Images were collected on an Odyssey Imager (LI-COR) and analyzed with the Image Studio Lite software (version 5.0.21).
Mammalian target of rapamycin (mTOR) is a crucial regulator of cell growth and metabolism and has been implicated in aging and many diseases, including cancer, diabetes and neurological diseases (Dazert and Hall, 2011; Zoncu et al., 2011). […] In addition, the anti-diabetes drug metformin (Kalender et al., 2010), as well as other AMPK activators such as 2-deoxy-D-glucose (Inoki et al., 2003) and AICAR (Shaw et al., 2004), could inhibit mTORC1. Applicants examined the effects of our molecules (at three doses, 5 μM, 10 μM and 20 μM) on the phosphorylation status of ribosomal protein S6 (RPS6), a readout of mTOR activity, to ask whether they could inhibit mTOR.
In-Cell Western assays were performed, following the same procedures to analyze DNA-damage markers. WI-38 cells were incubated with small molecules for 24 hrs, and then processed and incubated with primary antibody cocktail (mouse anti-RPS, 1:25; rabbit-anti-pRPS6, 1:100) overnight at 4° C. Next day, samples were processed and incubated with fluorophore-conjugated secondary antibodies (goat anti-mouse, 1:500; goat anti-rabbit, 1:1,000) in antibody dilution buffer. Images were collected on an Odyssey Imager (LI-COR) and analyzed with the Image Studio Lite software.

[2] = Summary score for characterization of 38 core set hits; conditions: for D = Triple resistant: 2-point score, multiplex resistance (cadmium, MMS, H2O2); for C = H2O2- & Cd-resistant: score, resistance to both H2O2 and cadmium
Protocol: 38 “core set” small molecules are listed and are assigned a score, based on the result for each individual characterization. From our small molecule screen for H2O2-resistance, we isolated 61 top hits. […] Specifically, a 2-point score was assigned to the most well-known and prominent longevity-related phenotypes, such as multiplex resistance, activation of FOXO3 and/or NRF2, and down-regulation of mTOR. Small molecules were also analyzed for their ability to extend C. elegans' lifespan in 4 to 6 independent trials, and the lifespan score scale is from 0 to 2: 0 for no obvious effects, 1 for lifespan extension observed in 2 trials, 2 for observed in more than 2 trials. Certain molecules appeared to have DNA-damaging effects and/or potential cell-toxicity in cultured human cells, and they receive a negative point.

[3] = tested on: C. elegans; format: in vivo, Caenorhabditis elegans
Protocol: The worms were treated with the small molecules in liquid, with H2O2 (500 μM final concentration) added on day 4 of adulthood, and scored for viability everyday
FUdR was used to block progeny production. The molecules were analyzed in 96-well plates, with 4 wells for each small molecule. Multiple control wells with DMSO (0.2% final concentration) were included. […] Day 1 adults were transferred onto mini-plates, seeded with OP50 bacteria (UV-irradiated, kanamycin-treated) and supplemented with small molecules (˜60 μM final concentration, 0.2% DMSO). Worms were scored every other day. Cumulative survival was analyzed using the STATA software (log-rank test). […] The worms were treated with the small molecules in liquid, with H2O2 (500 μM final concentration) added on day 4 of adulthood, and scored for viability every day.

[4] = tested on: LC3A/B puncta; assay: Autophagy induction analysis (LC3A/B puncta immuno-staining); format: cell-based, human
Protocol: Immuno-staining of LC3A/B was performed, following a standard protocol. Briefly, WI-38 cells were treated with small molecules for 24 hrs, and then processed and incubated with primary antibody (Cell Signaling, rabbit anti-LC3A/B, 1:100) overnight at 4° C. Next day, samples were processed and incubated with fluorophore-conjugated secondary antibody and further incubated with DAPI dye. Images were collected on the INCell Analyzer 2000 (Experiment 1: 10× objective; Experiment 2: 20× objective) and analyzed with the Developer Toolbox. For Experiment 2, lysosomal-associated membrane protein 2 (LAMP2) was also counter-stained to identify the LC3A/B puncta that colocalize with lysosome and the data were analyzed by the MetaXpress software (Molecular Devices, version 5.1). The intensity of total (Exp. 1) or LAMP2-colocalized LC3A/B puncta (Exp. 2) was normalized the total numbers nuclei in the fields.
These assays were performed, following the same procedures to analyze DNA-damage markers. WI-38 cells were incubated with small molecules for 24 hrs, and then processed and incubated with primary antibody (rabbit anti-LC3A/B, 1:100) overnight at 4 C. The next day, samples were processed and incubated with fluorophore-conjugated secondary antibody and further incubated with DAPI dye. Images were collected on an INCell Analyzer 2000 and analyzed with the Developer software. Total LC3A/B puncta intensity was normalized the total numbers of DAPI-positive nuclei.

Row | SMILES | G = mTOR down-regulation ([1]; 2-point score) | G = mTOR down-regulation ([1]; summary score) | D = Triple resistant [2] | C = H2O2- & Cd-resistant [2] | S = Sum of Negative scores ([2]; sum of columns Q and R) | N = H2O2-resistance in woms ([3]; score) | L = H2O2-resistance in worms ([3]; summary score) | H = Potential Autophagy Induction ([4]; score) | H = Potential Autophagy Induction ([4]; summary score) | S = Sum of Negative scores ([2]; human) | H2O2-resistance assay, 1st experiment ([3]; in vivo) | L = H2O2-resistance in worms ([3]; in vivo) | N = H2O2-resistance in woms ([3]; in vivo)
1 | COc1ccc(C(=O)/C=C/c2ccccc2Br)c(OC)c1 [Gr-4B] | 0 | 0 | 0 | 1 | 0 | 0 | 0 | 0 | 0 |  |  |  | 
2 | COc1ccc(C(=O)/C=C/c2cccc(Cl)c2)c(OC)c1 [Gr-4C] | 0 | 0 | 0 | 0 | 0 | 0 | 0 | 0 | 0 |  |  |  | 
3 | O=C(/C(=C/c1ccc(Cl)cc1)c1nc2ccccc2[nH]1)c1ccccc1 [Gr-4D] | 0 | 0 | 0 | 1 |  |  |  | 0 | 0 | 0 | YES; | 0 | 0
4 | CCc1ccc(Oc2nc3ccccn3c(=O)c2/C=C(\C#N)C(=O)NC2CCCCC2)cc1 [Gr-5A] | 0 | 0 | 0 | 1 |  |  |  | 0 | 0 | 0 | YES; | 0 | 0
5 | CCc1ccc(Oc2nc3ccccn3c(=O)c2/C=C(\C#N)C(=O)NCc2ccco2)cc1 [Gr-5B] | 0 | 0 | 0 | 0 |  |  |  | 0 | 0 | 0 |  | 0 | 0
6 | CNC(=O)/C(C#N)=C/c1c(Oc2ccc(C(C)(C)C)cc2)nc2ccccn2c1=O [Gr-5D] | 0 | 0 | 0 | 0 |  |  |  | 0 | 0 | 0 |  | 0 | 0
